Test [1] can be described thus: Inhibition against kappa receptor from displacement studies using 1.5 nM [3H]U-69593 in rhesus monkey cortex membrane.
The nature of test [2]: Inhibition against sigma receptor using displacement of 3 nM [3H]pentazocine in homogenate of guinea pig brain cerebellum.
A short description of test [3]: Inhibition against mu receptor from displacement studies using 0.5 nM [3H]-DAMGO in rhesus monkey cortex membrane.
Test [4] in a line: Inhibition against delta receptor from displacement studies using 1.5 nM [3H]DPDPE in rhesus monkey cortex membrane.

With `CCCCCCCCCCN1CC[C@]2(C)c3cc(O)ccc3CC1[C@H]2C` [(6S,11S)-3-Decyl-6,11-dimethyl-1,2,3,4,5,6-hexahydro-2,6-methano-benzo[d]azocin-8-ol], the Ki (in general, a dissociation constant, usually derived from enzyme kinetics or from competition with a known ligand) is 2260 nM in test [1], 69 nM in test [2] and 756 nM in test [3].
Turning to `CCCCCN1CC[C@]2(C)c3cc(O)ccc3CC1[C@@H]2C` [(6S,11R)-6,11-Dimethyl-3-pentyl-1,2,3,4,5,6-hexahydro-2,6-methano-benzo[d]azocin-8-ol], the inhibitory constant (Ki) in test [1] was found to be 23 nM; in test [4] it was 98 nM; in test [3], 15 nM.
Turning to `CCN1CC[C@@]2(C)c3cc(O)ccc3CC1[C@H]2C` [(6R,11S)-3-Ethyl-6,11-dimethyl-1,2,3,4,5,6-hexahydro-2,6-methano-benzo[d]azocin-8-ol], the Ki in test [1] came out at 3780 nM; in test [4] it was 7000 nM; in test [2], 1090 nM.
`CCCCCCCN1CC[C@]2(C)c3cc(O)ccc3CC1[C@H]2C` [(6S,11S)-3-Heptyl-6,11-dimethyl-1,2,3,4,5,6-hexahydro-2,6-methano-benzo[d]azocin-8-ol]: the inhibition constant (Ki) in test [1] came out at 723 nM; in test [4], 7000 nM; in test [2], 1.9 nM; in test [3] it was 259 nM.
Turning to `CCCCN1CC[C@@]2(C)c3cc(O)ccc3CC1[C@H]2C` [(6R,11S)-3-Butyl-6,11-dimethyl-1,2,3,4,5,6-hexahydro-2,6-methano-benzo[d]azocin-8-ol], the inhibitory constant (Ki) is 783 nM in test [1], 7000 nM in test [4], 6 nM in test [2] and 1240 nM in test [3].
Taken in the same sequence, the figures for `CCCCCCCCCN1CC[C@]2(C)c3cc(O)ccc3CC1[C@@H]2C` [(6S,11R)-6,11-Dimethyl-3-nonyl-1,2,3,4,5,6-hexahydro-2,6-methano-benzo[d]azocin-8-ol] were 709 nM, 464 nM, 32 nM and 183 nM.
Taken in the same sequence, the figures for `CCCN1CC[C@@]2(C)c3cc(O)ccc3CC1[C@H]2C` [(6R,11S)-6,11-Dimethyl-3-propyl-1,2,3,4,5,6-hexahydro-2,6-methano-benzo[d]azocin-8-ol] were 452 nM, 7000 nM, 43 nM and 943 nM.
For `CCN1CC[C@]2(C)c3cc(O)ccc3CC1[C@@H]2C` [(6S,11R)-3-Ethyl-6,11-dimethyl-1,2,3,4,5,6-hexahydro-2,6-methano-benzo[d]azocin-8-ol] the same measures were 16 nM, 158 nM, 16600 nM and 16 nM.
As for `CCCCCCCCCCN1CC[C@]2(C)c3cc(O)ccc3CC1[C@@H]2C` [(6S,11R)-3-Decyl-6,11-dimethyl-1,2,3,4,5,6-hexahydro-2,6-methano-benzo[d]azocin-8-ol], the Ki in test [1] was 2260 nM; in test [4], 2580 nM; in test [2], 38 nM; in test [3], 997 nM.
With `C[C@H]1C2Cc3ccc(O)cc3[C@@]1(C)CCN2` [(6S,11R)-6,11-Dimethyl-1,2,3,4,5,6-hexahydro-2,6-methano-benzo[d]azocin-8-ol], the Ki was 113 nM in test [1], 449 nM in test [4] and 6750 nM in test [2].
As to `CCCCCCCCN1CC[C@]2(C)c3cc(O)ccc3CC1[C@@H]2C` [(6S,11R)-6,11-Dimethyl-3-octyl-1,2,3,4,5,6-hexahydro-2,6-methano-benzo[d]azocin-8-ol], the Ki was determined as 77 nM in test [1], 114 nM in test [4], 35 nM in test [2] and 59 nM in test [3].
With `CCCCCN1CC[C@@]2(C)c3cc(O)ccc3CC1[C@H]2C` [(6R,11S)-6,11-Dimethyl-3-pentyl-1,2,3,4,5,6-hexahydro-2,6-methano-benzo[d]azocin-8-ol], the values for the Ki in test [1], in test [4] and in test [3] were 738 nM, 7000 nM and 776 nM, respectively.
In the case of `CCCN1CC[C@]2(C)c3cc(O)ccc3CC1[C@@H]2C` [(6S,11R)-6,11-Dimethyl-3-propyl-1,2,3,4,5,6-hexahydro-2,6-methano-benzo[d]azocin-8-ol], the Ki in test [1] amounted to 2 nM; in test [4], 37 nM; in test [2], 739 nM; in test [3], 1.5 nM.
Taken in the same sequence, the figures for `CCCCCCCN1CC[C@]2(C)c3cc(O)ccc3CC1[C@@H]2C` [(6S,11R)-3-Heptyl-6,11-dimethyl-1,2,3,4,5,6-hexahydro-2,6-methano-benzo[d]azocin-8-ol] were 32 nM, 57 nM, 49 nM and 27 nM.
Taken in the same sequence, the figures for `C[C@@H]1C2Cc3ccc(O)cc3[C@]1(C)CCN2C` [(6R,11S)-3,6,11-Trimethyl-1,2,3,4,5,6-hexahydro-2,6-methano-benzo[d]azocin-8-ol] were 3780 nM, 7000 nM, 1330 nM and 1380 nM.
For `C[C@H]1C2Cc3ccc(O)cc3[C@@]1(C)CCN2C` [(6S,11R)-3,6,11-Trimethyl-1,2,3,4,5,6-hexahydro-2,6-methano-benzo[d]azocin-8-ol] the same measures were 17 nM, 152 nM, 18100 nM and 4.2 nM.
Take `C[C@@H]1C2Cc3ccc(O)cc3[C@]1(C)CCN2` [(6R,11S)-6,11-Dimethyl-1,2,3,4,5,6-hexahydro-2,6-methano-benzo[d]azocin-8-ol]: the Ki amounted to 3780 nM in test [1], 7000 nM in test [4], 2730 nM in test [2] and 1720 nM in test [3].
Consider `CCCCCCN1CC[C@@]2(C)c3cc(O)ccc3CC1[C@H]2C` [(6R,11S)-3-Hexyl-6,11-dimethyl-1,2,3,4,5,6-hexahydro-2,6-methano-benzo[d]azocin-8-ol], for which the Ki came to 2260 nM in test [1], 2.3 nM in test [2] and 318 nM in test [3].
For the compound `CCCCCCN1CC[C@]2(C)c3cc(O)ccc3CC1[C@@H]2C` [(6S,11R)-3-Hexyl-6,11-dimethyl-1,2,3,4,5,6-hexahydro-2,6-methano-benzo[d]azocin-8-ol], the inhibitory constant (Ki) was found to be 43 nM in test [1], 67 nM in test [4], 40 nM in test [2] and 39 nM in test [3].
Turning to `CCCCN1CC[C@]2(C)c3cc(O)ccc3CC1[C@@H]2C` [(6S,11R)-3-Butyl-6,11-dimethyl-1,2,3,4,5,6-hexahydro-2,6-methano-benzo[d]azocin-8-ol], the Ki in test [1] was found to be 4.9 nM; in test [4] it was 78 nM; in test [2] it was 104 nM; in test [3], 3.4 nM.
For `CCCCCCCCN1CC[C@]2(C)c3cc(O)ccc3CC1[C@H]2C` [(6S,11S)-6,11-Dimethyl-3-octyl-1,2,3,4,5,6-hexahydro-2,6-methano-benzo[d]azocin-8-ol] the same measures were 2260 nM, 1590 nM, 2.8 nM and 160 nM.
For `CCCCCCCCCN1CC[C@]2(C)c3cc(O)ccc3CC1[C@H]2C` [(6S,11S)-6,11-Dimethyl-3-nonyl-1,2,3,4,5,6-hexahydro-2,6-methano-benzo[d]azocin-8-ol] the same measures were 2260 nM, 2930 nM, 12 nM and 126 nM.

The values are drawn from BindingDB's records for doi:10.1021/jm00046a026 (Virginia Commonwealth University, 1994).
